Test system: Human immunodeficiency virus 1
Assay: Antiviral activity against HIV-1 pseudovirus infected in HEK293T cells transfected with DC-SIGN assessed as inhibition of viral entry into cells at 500 uM preincubated with compound for 2 hrs followed by viral addition and measured after 4 hrs by p24 ELISA relative to control
Type: functional
Details: Human immunodeficiency virus 1, HEK-293T, time 6 hrs

[N-]=[N+]=NCCO[C@H]1O[C@H](CO[C@H]2O[C@H](CO)[C@@H](O)[C@H](O)[C@@H]2O[C@H]2O[C@H](CO)[C@@H](O)[C@H](O)[C@@H]2O)[C@@H](O)[C@H](O[C@H]2O[C@H](CO)[C@@H](O)[C@H](O)[C@@H]2O[C@H]2O[C@H](CO)[C@@H](O)[C@H](O)[C@@H]2O)[C@@H]1O
inhibition at 500 µM: 15%

Source: ChEMBL document CHEMBL5518201, “Glycan-Modified Peptides for Dual Inhibition of Human Immunodeficiency Virus Entry into Dendritic Cells and T Cells” (J Med Chem, 2024)
